The assay concerns HCT15 cells. The assay is described as follows: MDR cell based killing assay, HCT15 cells with or without Verapamil (CellTiter-Glo). On the set-up: species or system human. Particulars: Homo sapiens. Here is the method:
To test the ability of the disclosed tubulysin payloads or prodrug payloads to kill human cell lines, an in vitro cytotoxicity assay can be performed. In vitro cytotoxicity of the disclosed payloads, as well as reference compounds, are evaluated using the CellTiter-Glo Assay Kit (Promega, Cat # G7573), in which the quantity of ATP present is used to determine the number of viable cells in culture. For the assay, C4-2, HEK293, or T47D cells are seeded at 4000 cells/well on Nunclon white 96-well plates in complete growth medium (DME high glucose:Ham's F12 at 4:1, 10% FBS, 100 units/ml Penicillin, 100 ug/ml streptomycin, 53 ug/ml glutatmine, 10 ug/ml insulin, 220 ng/ml biotin, 12.5 pg/ml T3, 12.5 ug/ml Adenine, 4 ug/ml transferrin for C42 cells; DME high glucose, 10% FBS, 100 units/ml Penicillin, 100 ug/ml streptomycin, 53 ug/ml glutatmine for HEK293; RPMI, 10% FBS, 100 units/ml Penicillin, 100 ug/ml streptomycin, 53 ug/ml glutatmine, 10 ug/ml insulin, 10 mM HEPEs, 200 nM Sodium Pyruvate for T47D cells) and grown overnight at 37° C. in 5% CO2. For cell viability curves, 1:3 serially diluted payloads are added to the cells at final concentrations ranging from 100 nM to 15 pM, including a no treatment control group, and are then incubated for 5 days. After the 5-day incubation, cells are incubated at room temperature with 100 μL of CellTiter-Glo reagents for 10 minutes. Relative luminescence units (RLU) can be determined on a Victor plate reader (PerkinElmer). The IC50 values are determined from a four-parameter logistic equation over a 10-point response curve (GraphPad Prism). All IC50 values are expressed in molar (M) concentration. The percent cell killing (% kill) at the maximum concentration tested is estimated from the following formula (100−% viable cells). Averages±standard deviation (SD) can be included where replicate experiments are performed.
In vitro cytotoxicity of the disclosed payloads as well as reference compounds are evaluated similarly as described above except using 1000 HCT15 cells, a colorectal carcinoma cell line, in growth medium (RPMI, 10% FBS, 100 units/ml Penicillin, 100 ug/ml streptomycin, 53 ug/ml glutatmine) with or without 5 ug/mL of Verapamil.
For each payload or prodrug payload, the HCT-15 IC50 in the absence of Verapamil is divided by the HCT-15 IC50 in the presence of Verapamil (HCT-15 IC50/HCT-15+Verapamil IC50). […] The reference compound, (MMAE), can have a ratio of 23.7. […]

[1] abbreviates: HCT-15, read-out: HCT-15 with verapamil IC50.

The IC50 is the concentration that inhibits the measured activity by half.

Where two headings read alike, the source gives them in different places.

For `CCCCCCN(C(=O)[C@@H](NC(=O)[C@H]1CCCCN1)[C@@H](C)CC)[C@H](C[C@@H](OCC)c1nc(C(=O)N[C@@H](Cc2ccc(N)c(F)c2)CC(C)(C)C(=O)O)cs1)C(C)C` [Compound P16, (4S)-5-(4-amino-3-fluorophenyl)-4-({2-[(1R,3R)-1-ethoxy-3-[(2S,3S)—N-hexyl-3-methyl-2-[(2R)-piperidin-2-ylformamido]pentanamido]-4-methylpentyl]-1,3-thiazol-4-yl}formamido)-2,2-dimethylpentanoic Acid], the IC50 is, setting by setting: (HCT-15, read-out: HCT-15 IC50) 1.96 nM; under setting [1], 0.18 nM.
The like results for `C#CCCCON(C(=O)[C@@H](NC(=O)[C@H]1CCCCN1C)[C@@H](C)CC)[C@H](C[C@@H](OC(C)=O)c1nc(C(=O)N[C@@H](Cc2ccc(O)cc2)CC(C)(C)C(=O)O)cs1)C(C)C` [Compound P51, (4S)-4-({2-[(1R,3R)-1-(acetyloxy)-4-methyl-3-[(2S,3S)-3-methyl-2-{[(2R)-1-methylpiperidin-2-yl]formamido}-N-(pent-4-yn-1-yloxy)pentanamido]pentyl]-1,3-thiazol-4-yl}formamido)-5-(4-hydroxyphenyl)-2,2-dimethylpentanoic Acid] were, in that order, 0.41 nM and 0.16 nM.
On the same counts, the results for `CCCCCCN(C(=O)[C@@H](NC(=O)[C@H]1CCCCN1C)[C@@H](C)CC)[C@H](C[C@@H](OC(C)=O)c1nc(C(=O)N[C@@H](Cc2ccc(N)cc2)CC(C)(C)C(=O)O)cs1)C(C)C` [Compound P7, (4S)-4-({2-[(1R,3R)-1-(acetyloxy)-3-[(2S,3S)—N-hexyl-3-methyl-2-{[(2R)-1-methylpiperidin-2-yl]formamido}pentanamido]-4-methylpentyl]-1,3-thiazol-4-yl}formamido)-5-(4-aminophenyl)-2,2-dimethylpentanoic Acid] are 0.02 nM and 0.02 nM.
For `CCCCCCN(C(=O)[C@@H](NC(=O)[C@H]1CCCCN1C)[C@@H](C)CC)[C@H](C[C@@H](OCC)c1nc(C(=O)NS(=O)(=O)Cc2ccc(N)cc2)cs1)C(C)C` [Compound P45, N-[(4-aminophenyl)methanesulfonyl]-2-[(1R,3R)-1-ethoxy-3-[(2S,3S)—N-hexyl-3-methyl-2-{[(2R)-1-methylpiperidin-2-yl]formamido}pentanamido]-4-methylpentyl]-1,3-thiazole-4-carboxamide], the IC50 (HCT-15, read-out: HCT-15 IC50) came to 75.7 nM.
On the same count and under the same terms, next, `CCCCCCN(C(=O)[C@@H](NC(=O)[C@H]1CCCCN1C)[C@@H](C)CC)[C@H](C[C@@H](OCC)c1nc(C(=O)N[C@@H](Cc2ccccc2)CC(C)(C)C(=O)NS(=O)(=O)Cc2ccc(N)cc2)cs1)C(C)C` [Compound P48, (2S,3S)—N-[(1R,3R)-1-(4-{[(2S)-4-{[(4-aminophenyl)methanesulfonyl]carbamoyl}-4,4-dimethyl-1-phenylbutan-2-yl]carbamoyl}-1,3-thiazol-2-yl)-1-ethoxy-4-methylpentan-3-yl]-N-hexyl-3-methyl-2-{[(2R)-1-methylpiperidin-2-yl]formamido}pentanamide]: 65.8 nM.
As for `CCCCCCN(C(=O)[C@@H](NC(=O)[C@H]1CCCCN1C)[C@@H](C)CC)[C@H](C[C@@H](O)c1nc(C(=O)N[C@@H](Cc2ccc(N)c(F)c2)CC(C)(C)C(=O)O)cs1)C(C)C` [Compound P1, (4S)-5-(4-amino-3-fluorophenyl)-4-({2-[(1R,3R)-3-[(2S,3S)—N-hexyl-3-methyl-2-{[(2R)-1-methylpiperidin-2-yl]formamido}pentanamido]-1-hydroxy-4-methylpentyl]-1,3-thiazol-4-yl}formamido)-2,2-dimethylpentanoic Acid], the IC50 runs as follows: (HCT-15, read-out: HCT-15 IC50) 3 nM; under setting [1], 0.26 nM.
On the same counts, the results for `CCCCCCN(C(=O)[C@@H](NC(=O)[C@H]1CCCCN1C)[C@@H](C)CC)[C@H](C[C@@H](OCC)c1nc(C(=O)N[C@@H](Cc2ccc(N)cc2)CC(C)(C)C(=O)O)cs1)C(C)C` [Compound P8, (4S)-5-(4-aminophenyl)-4-({2-[(1R,3R)-1-ethoxy-3-[(2S,3S)—N-hexyl-3-methyl-2-{[(2R)-1-methylpiperidin-2-yl]formamido}pentanamido]-4-methylpentyl]-1,3-thiazol-4-yl}formamido)-2,2-dimethylpentanoic Acid] are 0.24 nM and 0.06 nM.
Consider `C#CCCCON(C(=O)[C@@H](NC(=O)[C@H]1CCCCN1C)[C@@H](C)CC)[C@H](C[C@@H](OC(C)=O)c1nc(C(=O)N[C@@H](Cc2ccc(NC(=O)CNC(=O)CN)cc2)CC(C)(C)C(=O)O)cs1)C(C)C` [Compound P39, (4S)-4-({2-[(1R,3R)-1-(acetyloxy)-4-methyl-3-[(2S,3S)-3-methyl-2-{[(2R)-1-methylpiperidin-2-yl]formamido}-N-(pent-4-yn-1-yloxy)pentanamido]pentyl]-1,3-thiazol-4-yl}formamido)-5-{4-[2-(2-aminoacetamido)acetamido]phenyl}-2,2-dimethylpentanoic Acid], for which the concentration for half-maximal inhibition (IC50) (HCT-15, read-out: HCT-15 IC50) came out at 0.62 nM.
Turning to `CCCCCCN(C(=O)[C@@H](NC(=O)[C@H]1CCCCN1C)[C@@H](C)CC)[C@H](C[C@@H](OCC)c1nc(C(=O)N[C@@H](Cc2ccc(N)c(F)c2)CC(C)(C)C(=O)O)cs1)C(C)C` [Compound P3, (4S)-5-(4-amino-3-fluorophenyl)-4-({2-[(1R,3R)-1-ethoxy-3-[(2S,3S)—N-hexyl-3-methyl-2-{[(2R)-1-methylpiperidin-2-yl]formamido}pentanamido]-4-methylpentyl]-1,3-thiazol-4-yl}formamido)-2,2-dimethylpentanoic Acid], the IC50 came out at 0.07 nM (HCT-15, read-out: HCT-15 IC50) and 0.01 nM under setting [1].
As for `CCCCCCN(C(=O)[C@@H](NC(=O)[C@H]1CCCCN1C)[C@@H](C)CC)[C@H](C[C@@H](OC(C)=O)c1nc(C(=O)N[C@@H](Cc2ccc(F)cc2)CC(C)(C)C(=O)NS(=O)(=O)c2ccc(CN)cc2)cs1)C(C)C` [Compound P46, (1R,3R)-1-(4-{[(2S)-4-{[4-(aminomethyl)benzenesulfonyl]carbamoyl}-1-(4-fluorophenyl)-4,4-dimethylbutan-2-yl]carbamoyl}-1,3-thiazol-2-yl)-3-[(2S,3S)—N-hexyl-3-methyl-2-{[(2R)-1-methylpiperidin-2-yl]formamido}pentanamido]-4-methylpentyl Acetate], the IC50 (HCT-15, read-out: HCT-15 IC50) was > 100 nM.
Still for that read-out and setting: the same measure for `C#CCCCON(C(=O)[C@@H](NC(=O)[C@@]1(C)CCCN1)[C@@H](C)CC)[C@H](C[C@@H](OC(C)=O)c1nc(C(=O)N[C@@H](Cc2ccc(N)c(F)c2)CC(C)(C)C(=O)O)cs1)C(C)C` [Compound P35, (4S)-4-({2-[(1R,3R)-1-(acetyloxy)-4-methyl-3-[(2S,3S)-3-methyl-2-{[(2R)-2-methylpyrrolidin-2-yl]formamido}-N-(pent-4-yn-1-yloxy)pentanamido]pentyl]-1,3-thiazol-4-yl}formamido)-5-(4-amino-3-fluorophenyl)-2,2-dimethylpentanoic Acid]: 4.87 nM.
Same read-out and setting: next, `CCCCCCN(C(=O)[C@@H](NC(=O)[C@H]1CCCCN1C)[C@@H](C)CC)[C@H](C[C@@H](OC(C)=O)c1nc(C(=O)NS(=O)(=O)Cc2ccc(N)cc2)cs1)C(C)C` [Compound P44, (1R,3R)-1-(4-{[(4-aminophenyl)methanesulfonyl]carbamoyl}-1,3-thiazol-2-yl)-3-[(2S,3S)—N-hexyl-3-methyl-2-{[(2R)-1-methylpiperidin-2-yl]formamido}pentanamido]-4-methylpentyl Acetate]: 25.8 nM.
Consider `C#CCCCON(C(=O)[C@@H](NC(=O)[C@H]1CCCCN1C)[C@@H](C)CC)[C@H](C[C@@H](OC(C)=O)c1nc(C(=O)N[C@@H](Cc2ccc(N)cc2)CC(C)(C)C(=O)O)cs1)C(C)C` [Compound P34, (4S)-4-({2-[(1R,3R)-1-(acetyloxy)-4-methyl-3-[(2S,3S)-3-methyl-2-{[(2R)-1-methylpiperidin-2-yl]formamido}-N-(pent-4-yn-1-yloxy)pentanamido]pentyl]-1,3-thiazol-4-yl}formamido)-5-(4-aminophenyl)-2,2-dimethylpentanoic Acid], for which the IC50 is, setting by setting: (HCT-15, read-out: HCT-15 IC50) 0.41 nM; under setting [1], 0.24 nM.
